Converted amounts (≈) assume the structure as drawn. Counter-ions that a name gives are not always drawn.
Tests used:
[1] = test system: Mycobacterium tuberculosis; assay: Antimicrobial activity against Mycobacterium tuberculosis H37Rv after 7 days by resazurin microtiter assay; type: functional; conditions: 168 h
[2] = Stability of the compound in DMSO-d6 solvent/middlebrook 7H9 broth media after 16 hrs by 1H NMR spectra analysis; type: physicochemical
[3] = Solubility of the compound in EtOH; type: physicochemical
HEK-293T = assay: Cytotoxicity against HEK293T cells after 72 hrs by MTT assay; type: cell-based; conditions: Homo sapiens
[4] = Solubility of the compound in CHCl3; type: physicochemical
[5] = Selectivity index, ratio of IC50 for HEK293T cells to MIC for Mycobacterium tuberculosis H37Rv; type: toxicity; conditions: human, read-out: Selectivity Index
[6] = Thermal stability of the compound in DMSO-d6 solvent at 37 degC by 1H NMR spectra analysis; type: physicochemical
[7] = Stability of the compound in DMSO-d6 solvent measured every 8 hrs for 12 days by 1H NMR spectra analysis; type: physicochemical; conditions: 288 h
[8] = Solubility of the compound in MeOH; type: physicochemical
[9] = Solubility of the compound in H2O; type: physicochemical

Row | Structure (SMILES) | MIC [1] | Stability [2] | solubility [3] | IC50 (HEK-293T) | solubility [4] | selectivity ratio [5] | Stability [6] | Stability [7] | solubility [8] | solubility [9]
1 | CN(C)c1ccc(C(=O)n2cc3c(=O)oc4ccccc4c3n2)cc1 | 0.59 µM (≈ 0.197 µg/mL) | Stable | Insoluble | > 200 µM | Insoluble | > 408 | Stable | Stable | Insoluble | Insoluble
2 | O=C(c1ccc(O)cc1)n1cc2c(=O)oc3ccccc3c2n1 | 0.32 µM (≈ 0.098 µg/mL) |  |  | > 200 µM |  | > 625 |  |  |  | 
3 | COc1ccc(C(=O)N/N=C/c2c(Cl)c3ccccc3oc2=O)cc1 | 0.28 µM (≈ 0.0999 µg/mL) | Stable | Insoluble | 113 µM | Insoluble | 403 | Stable | Stable | Insoluble | Insoluble
4 | O=C(N/N=C/c1c(Cl)c2ccccc2oc1=O)c1ccc(O)cc1O | 0.56 µM (≈ 0.201 µg/mL) |  |  |  |  |  |  |  |  | 
5 | O=C(N/N=C/c1c(Cl)c2ccccc2oc1=O)c1ccc(Cl)cc1 | 0.55 µM (≈ 0.199 µg/mL) | Stable | Insoluble | 21 µM | Insoluble | 33 | Stable | Stable | Insoluble | Insoluble
6 | COc1ccc(C(=O)n2cc3c(=O)oc4ccccc4c3n2)cc1 | 0.62 µM (≈ 0.199 µg/mL) | Stable | Insoluble | > 200 µM | Insoluble | > 645 | Stable | Stable | Insoluble | Insoluble
7 | O=C(c1ccc(O)cc1O)n1cc2c(=O)oc3ccccc3c2n1 | 0.62 µM (≈ 0.2 µg/mL) | Stable | Insoluble | > 200 µM | Insoluble | > 308 | Stable | Stable | Insoluble | Insoluble
8 | CN(C)c1ccc(C(=O)N/N=C/c2c(Cl)c3ccccc3oc2=O)cc1 | 0.54 µM (≈ 0.2 µg/mL) | Stable | Insoluble | 18.7 µM | Insoluble | 20 | Stable | Stable | Insoluble | Insoluble
9 | O=C(c1ccco1)n1cc2c(=O)oc3ccccc3c2n1 | 0.72 µM (≈ 0.202 µg/mL) |  |  | > 200 µM |  | > 282 |  |  |  | 
10 | Cc1occc1C(=O)n1cc2c(=O)oc3ccccc3c2n1 | 1.69 µM (≈ 0.497 µg/mL) |  |  | > 200 µM |  | > 119 |  |  |  | 
11 | O=C(N/N=C/c1c(Cl)c2ccccc2oc1=O)c1ccco1 | 0.63 µM (≈ 0.2 µg/mL) | Stable | Insoluble | 63.6 µM | Insoluble | 236 | Stable | Stable | Insoluble | Insoluble
12 | CC[C@@H](CO)NCCN[C@@H](CC)CO [ETHAMBUTOL HYDROCHLORIDE] | 1.46 µM |  |  |  |  |  |  |  |  | 
13 | NNC(=O)c1ccncc1 [ISONIAZID] | 0.79 µM (≈ 0.108 µg/mL) |  |  |  |  |  |  |  |  | 

Reference: ChEMBL document CHEMBL4033694, “Synthesis, antimycobacterial activity and docking study of 2-aroyl-[1]benzopyrano[4,3-c]pyrazol-4(1H)-one derivatives and related hydrazide-hydrazones” (Bioorg Med Chem Lett, 2017)
